The values below come from PMC8848508 (ACS Central Science, 2022).

In assay [1] the test system is SARS-CoV-2. The note with it: read-out: antiviral EC50, primary CPE assay, cited from earlier work.
Assay [2] has as its system SARS-CoV-2. Particulars: read-out: antiviral EC50; cited from earlier work.
The test system of assay [3] is SARS-CoV-2. The note with it: read-out: antiviral EC50; genomic RNA quantification; cited from earlier work.
The next assay concerns the target SARS-CoV-2 M^Pro (Severe acute respiratory syndrome coronavirus 2, UniProt P0DTD1). The class given is biochemical. The note with it: at 16 μM inhibitor.

Read-outs that look alike come from different tables or passages of the source.

One may read the EC50 as the concentration giving half of the maximal effect. Consider `CC(C)(C)NC(=O)N[C@H](C(=O)N1C[C@H]2[C@@H]([C@H]1C(=O)NC(CC1CCC1)C(=O)C(N)=O)C2(C)C)C(C)(C)C` (some centres unmarked) [boceprevir], for which the EC50 in the assay with SARS-CoV-2 [1] is 1310 ± 580 nM; in the assay on SARS-CoV-2 [2], 15600 nM. As for `CCCCCCNC(=O)n1cc(F)c(=O)[nH]c1=O` [carmofur], in the assay with SARS-CoV-2 [3], the half-maximal effective concentration (EC50) is over 100000 nM. `CC(C)COCC(CN(Cc1ccccc1)c1ccccc1)N1CCCC1` (centres unmarked) [bepridil]: in the assay on SARS-CoV-2 [1] (ACE2+ A549 cells), the half-maximal effective concentration (EC50) was 460 nM. With `CCN(CC)CCCC(C)Nc1ccnc2cc(Cl)ccc12` (centres unmarked) [chloroquine], the “M^Pro retained activity” value at SARS-CoV-2 M^Pro was 84%.
